The values that follow come from US7851487B2, “Use of tetrahydropyridines in the treatment of central nervous system disorders” (The Research Foundation of State University of New York, priority 2006, dated 2010).

Where a name gives a salt, the structure may show the parent alone. Where only a bound is given, the exact number is not on record here.

One experiment deals with T1, dopamine transporter (Rattus norvegicus, UniProt P23977).
T1 construct: tissue Pel-Freez, Rogers, AR; host or cells: rat striatum membranes
T1 sequence (P23977 whole entry): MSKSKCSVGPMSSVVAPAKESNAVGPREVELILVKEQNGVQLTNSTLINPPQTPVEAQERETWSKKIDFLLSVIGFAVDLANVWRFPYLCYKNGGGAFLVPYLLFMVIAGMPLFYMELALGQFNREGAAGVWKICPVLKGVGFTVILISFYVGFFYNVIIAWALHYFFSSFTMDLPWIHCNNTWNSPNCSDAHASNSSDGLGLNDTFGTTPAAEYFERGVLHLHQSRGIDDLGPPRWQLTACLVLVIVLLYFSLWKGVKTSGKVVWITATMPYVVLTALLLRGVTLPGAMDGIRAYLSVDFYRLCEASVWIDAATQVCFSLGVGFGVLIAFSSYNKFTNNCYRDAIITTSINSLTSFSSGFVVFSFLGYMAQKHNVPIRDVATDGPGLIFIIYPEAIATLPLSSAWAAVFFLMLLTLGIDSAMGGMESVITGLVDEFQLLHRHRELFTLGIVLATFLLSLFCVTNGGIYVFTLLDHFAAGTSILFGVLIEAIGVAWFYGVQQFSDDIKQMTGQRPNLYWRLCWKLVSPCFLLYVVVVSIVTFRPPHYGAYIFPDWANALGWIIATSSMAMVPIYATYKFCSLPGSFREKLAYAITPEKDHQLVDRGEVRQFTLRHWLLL
Description: [125I]RTI-55 displacement at dopamine transport sites, rat striatum membranes. The class given is binding. The settings on record: DA (IC50, nM), displacement of 10 pM [125I]RTI-55, rat striatum. The method, then:
(§1) For this Example, binding of at biogenic amine transporters was determined using striatum and frontal cortex dissected from frozen Sprague-Dawley rat brains (Pel-Freez, Rogers, AR). Affinities of analogs at dopamine transport sites were determined by displacement of [^125I]RTI-55 binding in membranes from rat striatum, using 0.5 mg (original wet weight) of membranes and 10 pM [^125]RTI-55. Non-specific binding was determined in the presence of 1 μM WF-23 (analog 3a). Affinities of analogs at 5-HT transport sites were determined by displacement of [^3H] paroxetine binding in membranes from rat frontal cortex, using 50 mg (original wet weight) of membranes and 0.4 nM [^3H]paroxetine. Non-specific binding was determined in the presence of 10 μM fluoxetine. Binding of analogs at norepinephrine transport sites was determined by displacement of [^3H]nisoxetine binding in membranes from rat forebrain, using 0.7 nM [^3H]nisoxetine. Non-specific binding was determined in the presence of 1 μM desipramine.
(§2) Potencies were calculated from displacement curves using 7-10 concentrations of unlabeled analogs, as analyzed by non-linear curve fitting. Because binding of tropanes at dopamine transporters is generally regarded as multiphasic,^3 potencies in inhibiting [^125I]RTI-55 binding are reported as IC50 values. For [^3H]paroxetine and [^3H]nisoxetine binding assays, Ki values were calculated using the Cheng-Prusoff equation. All data are mean values±S.E.M. of at least three separate experiments, each of which was conducted in triplicate.
(§3) The binding affinities to dopamine (DA), serotonin (5-HT), and norepinephrine (NE) transporters for the series of compounds (4) are presented in Table 1.

Experiment [1] deals with T2, norepinephrine transporter (Rattus norvegicus, UniProt Q9WTR4).
T2 construct: tissue Pel-Freez, Rogers, AR; host or cells: rat forebrain membranes
T2 sequence (Q9WTR4 1-597): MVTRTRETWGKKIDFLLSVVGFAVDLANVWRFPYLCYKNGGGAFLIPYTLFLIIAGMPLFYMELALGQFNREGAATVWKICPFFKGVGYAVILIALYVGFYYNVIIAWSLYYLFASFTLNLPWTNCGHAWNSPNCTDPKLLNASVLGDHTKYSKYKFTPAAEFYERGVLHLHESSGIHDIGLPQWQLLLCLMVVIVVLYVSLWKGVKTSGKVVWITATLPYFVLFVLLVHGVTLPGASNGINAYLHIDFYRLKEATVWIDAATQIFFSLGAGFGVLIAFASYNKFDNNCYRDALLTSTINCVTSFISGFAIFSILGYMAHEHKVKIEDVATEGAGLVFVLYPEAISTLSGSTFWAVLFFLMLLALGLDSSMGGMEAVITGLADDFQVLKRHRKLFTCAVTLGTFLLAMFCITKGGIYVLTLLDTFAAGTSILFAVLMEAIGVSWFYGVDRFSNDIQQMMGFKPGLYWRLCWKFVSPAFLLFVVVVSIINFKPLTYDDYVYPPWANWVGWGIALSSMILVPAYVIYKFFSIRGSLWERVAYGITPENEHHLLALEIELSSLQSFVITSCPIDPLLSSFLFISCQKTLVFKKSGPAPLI
The experiment can be described thus: [3H]nisoxetine displacement at norepinephrine transport sites, rat forebrain membranes. The class given is binding. The following applies: NE (Ki, nM), displacement of 0.7 nM [3H]nisoxetine. The method, then:
as §1, §2, §3

Another experiment concerns the target T3, 5-HT transporter (Rattus norvegicus, UniProt P31652).
T3 construct: tissue Pel-Freez, Rogers, AR; host or cells: rat frontal cortex membranes
The experiment can be described thus: [3H]paroxetine displacement at 5-HT transport sites, rat frontal cortex membranes. The class given is binding. The protocol:
as §1, §2, §3

The subject of a further experiment is ckr mouse. The experiment can be described thus: Hyperactivity and circling in ckr mice (model validation). The following applies: rate of hyperactivity and circling after administration, concentrations relevant to human clinical use. The class given is in vivo. The protocol: The mouse also presents lateral ventricular enlargement, which may mirror neuropathological observations in shizophrenia. […] We have further validated this model by testing risperidone, clozapine, haloperidol and pimozide in the ckr mouse. The behavioral output was assayed by measuring the rate of hyperactivity and circling after administration.

T3 sequence (P31652 whole entry): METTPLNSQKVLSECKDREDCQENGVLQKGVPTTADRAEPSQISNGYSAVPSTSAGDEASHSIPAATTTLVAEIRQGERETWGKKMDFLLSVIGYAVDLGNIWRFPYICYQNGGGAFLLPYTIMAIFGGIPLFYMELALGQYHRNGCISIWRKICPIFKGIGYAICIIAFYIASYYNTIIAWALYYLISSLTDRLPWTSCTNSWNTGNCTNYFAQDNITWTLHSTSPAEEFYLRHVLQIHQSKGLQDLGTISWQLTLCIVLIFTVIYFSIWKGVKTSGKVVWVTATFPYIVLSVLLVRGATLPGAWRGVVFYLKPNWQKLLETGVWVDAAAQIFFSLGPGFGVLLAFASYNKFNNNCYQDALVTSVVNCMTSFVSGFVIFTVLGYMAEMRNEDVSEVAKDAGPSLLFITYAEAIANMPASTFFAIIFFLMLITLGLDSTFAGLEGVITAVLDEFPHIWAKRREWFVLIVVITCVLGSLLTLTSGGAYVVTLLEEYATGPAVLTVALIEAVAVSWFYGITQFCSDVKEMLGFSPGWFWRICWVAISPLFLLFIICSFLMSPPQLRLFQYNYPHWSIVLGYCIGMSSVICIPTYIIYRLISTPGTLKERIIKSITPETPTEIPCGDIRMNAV

With `COC(=O)C(c1ccc(Br)cc1)C1C=CCCN1` (racemic) [(±)-4b], the IC50 at dopamine transporter amounted to 6020 nM.
`COC(=O)C(c1ccc(Cl)cc1)C1C=CCCN1` (racemic) [(±)-4c]: the Ki in experiment [1] was 1910 nM; at 5-HT transporter, above 10 µM. Also, on dopamine transporter, the IC50 turned out to be 6380 nM.
`COC(=O)C(c1ccc2ccccc2c1)C1C=CCCN1` (racemic) [(±)-4f]: the values for the Ki (in experiment [1]; on 5-HT transporter) were 1190 nM and 1.2 µM, respectively. The IC50 on dopamine transporter stood at 496 nM.
Regarding `COC(=O)[C@H](c1ccc(Br)cc1)[C@@H]1C=CCCN1` [(2R,2′S)-4b], the IC50 at dopamine transporter amounted to 5590 nM.
Turning to `COC(=O)[C@H](c1ccc(Cl)cc1)[C@@H]1C=CCCN1` [(2R,2′S)-4c], the values for the Ki (in experiment [1]; on 5-HT transporter) were 3310 nM and above 10 µM, respectively. In addition, the IC50 at dopamine transporter is 5030 nM.
As for `COC(=O)C(c1ccc(Cl)c(Cl)c1)C1C=CCCN1` [(2R,2′S)-4d], in experiment [1], the Ki worked out at 109 nM. For the same molecule, the IC50 on dopamine transporter came out at 216 nM.
Take `COC(=O)[C@H](c1ccc2ccccc2c1)[C@@H]1C=CCCN1` [(2R,2′S)-4f]: the inhibition constant Ki in experiment [1] is 323 nM; on 5-HT transporter, 0.608 µM. On dopamine transporter, the IC50 was 547 nM.
As to `COC(=O)[C@@H](c1ccc(Br)cc1)[C@H]1C=CCCN1` [(2S,2′R)-4b, (S)-Methyl 2-(4-bromophenyl)-2-((R)-1,2,5,6-tetrahydropyridin-2-yl)acetate hydrochloride], the IC50 at dopamine transporter came to 5340 nM.
As for `COC(=O)[C@@H](c1ccc(Cl)cc1)[C@H]1C=CCCN1` [(2S,2′R)-4c], the Ki in experiment [1] is 391 nM; on 5-HT transporter, above 10 µM. On dopamine transporter, the IC50 amounted to 5370 nM.
The matching figures for `COC(=O)C(c1ccc(Cl)c(Cl)c1)C1C=CCCN1` [(2S,2′R)-4d]: 193 nM, above 10 µM and 329 nM.
Taken in the same sequence, the figures for `COC(=O)[C@@H](c1ccc2ccccc2c1)[C@H]1C=CCCN1` [(2S,2′R)-4f] were 800 nM, 1.96 µM and 864 nM.
Consider `O=C(CCCN1CCC(O)(c2ccc(Cl)cc2)CC1)c1ccc(F)cc1` [haloperidol], for which the “hyperactivity in ckr mice” value in the experiment on ckr mouse was “dose-dependent attenuation of hyperactivity”.
In the case of `Cc1nc2n(c(=O)c1CCN1CCC(c3noc4cc(F)ccc34)CC1)CCCC2` [risperidone], the “hyperactivity in ckr mice” value in the experiment with ckr mouse was “dose-dependent attenuation of hyperactivity”.

As a reminder, the IC50 is the concentration needed to halve the response being measured. A high value points to weaker potency. By Ki is commonly meant the equilibrium dissociation constant of an inhibitor or competing ligand from its target. Low values mean a stronger hold on the target, high ones a looser hold on the target.
